Experimental findings from patent US10647721B2, “Bicyclic heteroaryl derivatives” (Hoffmann-La Roche Inc., priority 2016, dated 2020) are described below.

The test system of this assay is γ-secretase. Put plainly: Cellular γ-secretase assay (inhibition of Aβ42 secretion, AlphaLisa). Format: cell-based. As to conditions: human neuroglioma H4 cells overexpressing human APP695 Swedish double mutation, 24 hr compound incubation. As to the method:
Cellular γ-Secretase Assay
Human neuroglioma H4 cells overexpressing human APP695 with the Swedish double mutation (K595N/M596L) were plated at 30,000 cells/well/100 μl in 96-well plates in IMDM media containing 10% FCS, 0.2 mg/l Hygromycin B and incubated at 37° C., 5% CO2.
3-4 hr post plating, compounds are a diluted in media and 50 μl is added as 1.5-fold concentrate to achieve the final concentration. Compound incubation is performed for 24 hr. Final doses typically range from 4 μm down to 0.0013 μm in half-log steps resulting in a eight point dose response curve.
Appropriate controls using vehicle only and reference compound were applied to this assay. The final concentration of Me2SO was 0.4%.
After incubation at 37° C., 5% CO2, the supernatant was subjected to quantification of secreted Aβ42 by the means of an AlphaLisa assay kit (Human Amyloid beta 1-42 Kit: Cat # AL203C, Perkin Elmer). 20 μl of the cell culture supernatant was transferred to an assay plate. Then 10 μl of a mixture of the AlphaLisa coupled capture antibody and the biotinylated detection antibody was added and incubated for 3 hours at room temperature while softly shaking the assay plate. After a further addition of 20 μl of the Donor beads the assay plate was incubated for 30 min at room temperature and constant shaking without exposure to direct light. The assay plate was then read on a Paradigm AlphaLisa Reader using the build-in program with excitation at 680 nm and emission at […].
The measured signals were then used to calculate IC50 values for inhibition of Aβ42 secretion by nonlinear regression fit analysis using XLfit 5.3 software (IDBS).
One may read the EC50 as the concentration needed to bring the measured effect to its halfway point. Lower therefore signals a more potent agent. `Cc1ncc(-c2ncc(Nc3nc4n(n3)CCCN4c3ccc(F)cc3)cc2F)o1` [Example 39, N-[5-fluoro-6-(2-methyloxazol-5-yl)-3-pyridyl]-4-(4-fluorophenyl)-6,7-dihydro-5H-[1,2,4]triazolo[1,5-a]pyrimidin-2-amine] gave an EC50 of 17.5 nM. This counts as double-digit nanomolar.
`COc1cc(Nc2nc3n(n2)CCCN3c2cc(F)cc(F)c2)ccc1-n1cnc(C)n1` [Example 41, 4-(3,5-difluorophenyl)-N-[3-methoxy-4-(3-methyl-1,2,4-triazol-1-yl)phenyl]-6,7-dihydro-5H-[1,2,4]triazolo[1,5-a]pyrimidin-2-amine] came in with an EC50 of 14.2 nM. This EC50 and that of the molecule before are within 1.5-fold of each other.
`N#Cc1cc(Nc2nc3n(n2)CCCN3c2ccc(F)cc2)ccc1-n1cnc(Cl)c1` [Example 35, 2-(4-chloroimidazol-1-yl)-5-[[4-(4-fluorophenyl)-6,7-dihydro-5H-[1,2,4]triazolo[1,5-a]pyrimidin-2-yl]amino]benzonitrile] came in with an EC50 of 21 nM.
The molecule `COc1cc(Nc2nc3n(n2)CCCCN3c2ccc(F)c(F)c2)ccc1-n1cnc(C(F)(F)F)c1` [Example 10, 4-(3,4-difluorophenyl)-N-[3-methoxy-4-[4-(trifluoromethyl)imidazol-1-yl]phenyl]-5,6,7,8-tetrahydro-[1,2,4]triazolo[1,5-a][1,3]diazepin-2-amine] had an EC50 of 61.9 nM.
In the case of `Fc1ccc(N2CCCn3nc(Nc4ccc(-n5cncn5)c(F)c4)nc32)cc1F` [Example 14, 4-(3,4-difluorophenyl)-N-[3-fluoro-4-(1,2,4-triazol-1-yl)phenyl]-6,7-dihydro-5H-[1,2,4]triazolo[1,5-a]pyrimidin-2-amine] it was 89.9 nM; in that of `Fc1ccc(N2CCCn3nc(Nc4ccc(-n5cnc(Cl)c5)c(F)c4)nc32)cc1F` [Example 18, N-[4-(4-chloroimidazol-1-yl)-3-fluoro-phenyl]-4-(3,4-difluorophenyl)-6,7-dihydro-5H-[1,2,4]triazolo[1,5-a]pyrimidin-2-amine], 22.5 nM; in that of `COc1cc(Nc2nc3n(n2)CCCN3c2ccc(F)c(F)c2F)ccc1-c1cnc(C)o1` [Example 15, N-[3-methoxy-4-(2-methyloxazol-5-yl)phenyl]-4-(2,3,4-trifluorophenyl)-6,7-dihydro-5H-[1,2,4]triazolo[1,5-a]pyrimidin-2-amine], 14.4 nM.
Turning to `Fc1ccc(N2CCCn3nc(Nc4ccc(-n5cnc(Cl)n5)c(F)c4)nc32)cc1F` [Example 21, N-[4-(3-chloro-1,2,4-triazol-1-yl)-3-fluoro-phenyl]-4-(3,4-difluorophenyl)-6,7-dihydro-5H-[1,2,4]triazolo[1,5-a]pyrimidin-2-amine], the EC50 was determined as 102 nM.
As for `Cc1ncc(-c2ccc(Nc3nc4n(n3)CCCN4c3ccc(F)c(F)c3)cc2C#N)o1` [Example 27, 5-[[4-(3,4-difluorophenyl)-6,7-dihydro-5H-[1,2,4]triazolo[1,5-a]pyrimidin-2-yl]amino]-2-(2-methyloxazol-5-yl)benzonitrile], it took 20.2 nM to reach a half-maximal effect (EC50).
As for `COc1cc(Nc2nc3n(n2)CCCN3c2ccc(F)c(F)c2)ccc1-n1cnc(Cl)n1` [Example 12, N-[4-(3-chloro-1,2,4-triazol-1-yl)-3-methoxy-phenyl]-4-(3,4-difluorophenyl)-6,7-dihydro-5H-[1,2,4]triazolo[1,5-a]pyrimidin-2-amine], the EC50 amounted to 29.8 nM.
Turning to `COc1cc(Nc2nc3n(n2)CCCCN3c2ccc(F)c(F)c2)ccc1-c1cnc(C)o1` [Example 7, 4-(3,4-difluorophenyl)-N-[3-methoxy-4-(2-methyloxazol-5-yl)phenyl]-5,6,7,8-tetrahydro-[1,2,4]triazolo[1,5-a][1,3]diazepin-2-amine], it took 13.2 nM to reach a half-maximal effect (EC50).
The molecule `COc1cc(Nc2nc3n(n2)CCCN3c2ccc(F)c(F)c2F)ccc1-n1cnc(Cl)c1` [Example 17, N-[4-(4-chloroimidazol-1-yl)-3-methoxy-phenyl]-4-(2,3,4-trifluorophenyl)-6,7-dihydro-5H-[1,2,4]triazolo[1,5-a]pyrimidin-2-amine] registered an EC50 of 13 nM.
With `COc1cc(Nc2nc3n(n2)CCCN3c2ccc(F)c(F)c2)ccc1-c1cc(C)n[nH]1` [Example 25, 4-(3,4-difluorophenyl)-N-[3-methoxy-4-(3-methyl-1H-pyrazol-5-yl)phenyl]-6,7-dihydro-5H-[1,2,4]triazolo[1,5-a]pyrimidin-2-amine], the EC50 worked out at 58.5 nM.
Take `Cc1ncc(-c2ccc(Nc3nc4n(n3)CCCN4c3ccc(F)c(F)c3)cc2)o1` [Example 22, 4-(3,4-difluorophenyl)-N-[4-(2-methyloxazol-5-yl)phenyl]-6,7-dihydro-5H-[1,2,4]triazolo[1,5-a]pyrimidin-2-amine]: the EC50 is 19.8 nM.
The molecule `COc1cc(Nc2nc3n(n2)CCCN3c2cc(F)cc(F)c2)ccc1-n1cnc(Cl)c1` [Example 42, N-[4-(4-chloroimidazol-1-yl)-3-methoxy-phenyl]-4-(3,5-difluorophenyl)-6,7-dihydro-5H-[1,2,4]triazolo[1,5-a]pyrimidin-2-amine] yielded a concentration giving a half-maximal response (EC50) of 7.4 nM. Compared with the last molecule, the EC50 is about 2.7-fold lower.
The same measure for `Fc1ccc(N2CCCn3nc(Nc4ccc(-n5cnc(Cl)c5)c(F)c4)nc32)cc1` [Example 36, N-[4-(4-chloroimidazol-1-yl)-3-fluoro-phenyl]-4-(4-fluorophenyl)-6,7-dihydro-5H-[1,2,4]triazolo[1,5-a]pyrimidin-2-amine]: 39.9 nM; for `COc1cc(Nc2nc3n(n2)CCCN3c2ccc(F)c(F)c2)ccc1-c1cnc(C)o1` [Example 4, 4-(3,4-difluorophenyl)-N-[3-methoxy-4-(2-methyloxazol-5-yl)phenyl]-6,7-dihydro-5H-[1,2,4]triazolo[1,5-a]pyrimidin-2-amine]: 14.3 nM.
In the case of `COc1cc(Nc2nc3n(n2)CCCN3c2ccc(F)c(F)c2)ccc1-n1cnc(F)c1` [Example 40, 4-(3,4-difluorophenyl)-N-[4-(4-fluoroimidazol-1-yl)-3-methoxy-phenyl]-6,7-dihydro-5H-[1,2,4]triazolo[1,5-a]pyrimidin-2-amine] it was 20.3 nM; in that of `COc1cc(Nc2nc3n(n2)CCN3c2ccc(F)c(F)c2F)ccc1-n1cnc(Cl)c1` [Example 45, N-[4-(4-chloroimidazol-1-yl)-3-methoxy-phenyl]-4-(2,3,4-trifluorophenyl)-5,6-dihydroimidazo[1,2-b][1,2,4]triazol-2-amine], 30 nM.
For the molecule `Cc1ncn(-c2ccc(Nc3nc4n(n3)CCCN4c3ccc(F)c(F)c3)cc2C#N)n1` [Example 30, 5-[[4-(3,4-difluorophenyl)-6,7-dihydro-5H-[1,2,4]triazolo[1,5-a]pyrimidin-2-yl]amino]-2-(3-methyl-1,2,4-triazol-1-yl)benzonitrile], the response was half-maximal at 25.1 nM (EC50).
